Assay results taken from US20240092745A1, “DRUGS AND COMPOSITIONS FOR THE TREATMENT OF OCULAR DISORDERS” (Graybug Vision, Inc., priority 2017, published 2024).
Like-named read-outs stand apart in the source and are kept apart here.

How the values were obtained:
[1] = In vitro stability of prodrugs (degradation to parent, RP-HPLC); assay type: physicochemical; settings: for degradation kinetics / hydrolysis to parent, in words: PBS (pH 7) with 10% DMSO, 37° C., RP-HPLC
Procedure: Prodrugs of interest were dissolved in PBS (pH 7) containing 10% DMSO (v/v) at a concentration of 0.1 mg/mL. The samples were incubated at 37° C. or 50° C. to simulate physiological and accelerated degradation conditions, respectively. At various time points, 500 μL of the solution was collected, filtered through a 0.2 μm nylon syringe filter and analyzed by RP-HPLC.
Timolol-Dorzolamide bi-functional prodrugs were dissolved in a mixture of DMSO and PBS and incubated at 37° C. The solution was aliquoted and analyzed by HPLC at pre-determined time points. Timolol-Dorzolamide bi-functional prodrugs were stable for about 3 hours as evidenced by the significant reduction of prodrug peaks in HPLC after 2-3 hours (FIG. 30A and FIG. 30B). Timolol parent drug was detected as the bi-functional prodrug degraded, whereas Dorzolamide appeared in the form of prodrugs, i.e., Dorzolamide linked with 1-3 PLA units.

[2] = Determination of drug solubility in aqueous and organic solvent; assay type: physicochemical; settings: thermodynamic from solid, Table 3B;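 further: solid drug suspended at 50 mg/mL nominal in each solvent, vortexed and sonicated, then dissolved concentration in filtered supernatant quantified by HPLC against a calibration curve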
Procedure: For each test, approximately 5-10 mg was transferred to a 10 mL glass vial. Aqueous or organic solvent was added to each vial to achieve an overall concentration of 50 mg/mL. After vortexing aggressively for 2-3 minutes and sonicating in a bath sonicator for 5 minutes, undissolved drug was spun down at 1200 rpm for 5 minutes to generate a pellet. The supernatant was collected and filtered through a 0.2 μm nylon syringe filter into HPLC vials for drug content analysis. Drug concentration was determined by comparing against a standard calibration curve.

[3] = organic solvent or mixture, DMSO, read-out: Solubility DMSO
[4] = water, drug added to 50 mg/mL, read-out: Solubility Water

Row | polymer hydrolyzed to release free Timolol ([1]; by day 13, 37° C.) | solubility [2, 3] [mg/mL] | solubility [2, 4] [mg/mL] | Structure (SMILES) | degradation kinetics / hydrolysis to parent, in words [1]
1 | approximately 50% | > 50 | < 1 | CCOC(=O)CCC(=O)O[C@H](COc1nsnc1N1CCOCC1)CN(C(=O)[C@H](C)OC(=O)[C@H](C)OC(C)=O)C(C)(C)C [Compound 117-6, Timolol-bis-N-acetyl-PLA(n=2)-O-ethyl-succinate] | –
2 | – | > 50 | < 0.1 | CC(=O)O[C@@H](C)C(=O)O[C@@H](C)C(=O)O[C@H](COc1nsnc1N1CCOCC1)CN(C(=O)[C@H](C)OC(=O)[C@H](C)OC(C)=O)C(C)(C)C [Compound 118-1, Timolol-bis-N-acetyl-PLA(n=2)] | degraded slightly faster than a Timolol-bis-N-acetyl PLA(n=4) (119-6)
3 | – | > 50 | < 1 | CCOC(=O)CCC(=O)O[C@H](COc1nsnc1N1CCOCC1)CN(C(=O)[C@H](C)OC(=O)[C@H](C)OC(=O)[C@H](C)OC(=O)[C@H](C)OC(C)=O)C(C)(C)C [Compound 120-1, Timolol-bis-N-acetyl-PLA(n=4)-O-ethyl succinate] | degraded to free Timolol incompletely by day 13
